# Data reported in patent publication US20160030364A1, “Therapeutic Compositions and Uses Thereof” (MANUKA HEALTH NEW ZEALAND LIMITED, priority 2013, published 2016).
# Values joined by “and” are separate entries in the source; they are usually repeats but may differ in a detail not shown here. Equal values may be shown once.
# Assays:
# Type in all cases: cell-based
# [1] = system: human gastric carcinoma cell line (NCI-N87); experiment: MTT anti-proliferative assay, NCI-N87 (Examples 3-12); details: 200 μg/ml; for % inhibition / % stim. / Mean OD (570 nm): 48 hours
# Experimental: (§1) 5-phenylpenta-2,4-dienoic acid was assessed for its ability to modulate the viability and proliferation of human colorectal adenocarcinoma cells (DLD-1); human colon cancer cell line (HCT-116); human gastric carcinoma cell line (NCI-N87); and human oesophageal squamous cell carcinoma cell line (KYSE-30) as assessed by the MTT assay. The positive control, 5-fluorouracil (5-FU) was included at three concentrations; in addition to an unsupplemented cell control as a negative control in the study. The 5-phenylpenta-2,4-dienoic acid was a genuine standard with chemical structure confirmed by NMR and MS.
# (§2) The four human gastrointestinal carcinoma cell lines were revived from cryostorage and cultured in the presence of the test and reference samples. An MTT assay was then performed on the cultures to determine the effect of the samples on the cell viability and proliferation.
# (§3) The test sample 5-phenylpenta-2,4-dienoic acid, and all other test samples in Examples 4-12 (except tectochrysln) were Initially dissolved in pure ethanol to a concentration of around 13.35 mg/ml. Tectochrysin was initially dissolved in triethylene glycol mono-methyl ether to the same concentration. Working solutions were then prepared from the stock solutions by dilution to 15% ethanol/Hanks Balanced Salt Solution (ETOH)/HBSS to a concentration of 2 mg/mL solids. In the assay the final concentration of the samples was 200 μg/ml with a final EtOH concentration of 1.5%. Final concentrations of test compounds and propolis prepared as above are as noted in Example 3.
# (§4) • 1. Human colorectal adenocarcinoma cells (ATCC CCI-221, DLD-1)(ATCC, Bethesda, Md., USA) • 2. Human gastric carcinoma cells (ATCC CRL-5822, NCI-N87)(ATCC, Bethesda, Md., USA) • 3. Human oesophageal squamous cell carcinoma (ECACC, KYSE-30)(Sigma Aldrich, Auckland, NZ) • 4. Human colon carcinoma cells (ECACC HCT-116)(Sigma Aldrich, Auckland, NZ) • 5. Penicillin-streptomycin solution: 10000 units/ml penicillin, 10 mg/ml streptomycin in 0.9% NaCl (Sigma Cat #P-0781). Stored at −20° C. • 6. For DLD-1 cells: DMEM culture medium (Invitrogen Cat #12100-046). Stored at 4° C. • 7. For NCI-N87 cells: RPMI-1640 medium modified to contain 2 mM L-glutamine, 10 mM HEPES, 1 mM sodium pyruvate, 4500 mg/L glucose, and 1500 mg/L sodium bicarbonate (Sigma R6504). Stored at 4° C. • 8. For KYSE-410 cells: RPMI-1640 medium modified to contain 2 mM L-glutamine (Sigma R6504). Stored at 4° C. • 9. For HCT-116 cells: McCoy's 5A medium modified to contain 2 mM L-glutamine (Sigma M48792). Stored at 4° C. • 10. Trypsin-EDTA solution: 0.25% Trypsin/EDTA, Invitrogen Cat#15400054 (×10 in stock). • 11. Phosphate buffered saline (PBS) (Prepared by TBL). • 12. Hanks Balanced Salt Solution (HBSS). (GIBCO Cat No. 14185-052). Stored at 4° C. • 13. Foetal Bovine Serum (GIBCO Cat #10091-148). Stored at −20° C. • 14. MTT Reagent: 100 mg/vial, (SIGMA Cat. No. M-2128) dissolved in PBS at 10 mg/ml and stored at −20° C. 5 mg/ml MTT solution will be prepared in PBS and stored at 4° C. as working solution. • 15. MTT lysis buffer: 10% sodium dodecyl sulphate (SDS)/45% Dimethyl Formamide (20 g SDS will be dissolved in 100 ml of double-distilled water (DDW), and 90 ml of Dimethyl Formamide will be added to the SDS solution). The pH will be adjusted to 4.7 by glacial acetic acid, and DDW added up to a final volume of 200 ml. • 16. 5-Fluorouracil (5-FU), (Sigma Cat. No. F-6627). Three working solutions will be prepared at 19.5 μg/ml. 6.5 μg/ml and 1.95 μg/ml dissolved in 15% Ethanol/HBSS. Final concentrations will be 1.95 μg/ml (15 μM), 0.65 μg/ml (5 μM) and 0.195 μg/ml (1.5 μM).
# (§5) The medium for the propagation of the each of the cells lines is given above. Each medium was prepared following the ATCC/ECACC instructions and supplemented with penicillin-streptomycin solution (10 ml per litre). FBS (at 10%) was added just before use.
# • 1. […]
# [2] = system: human colorectal adenocarcinoma cells (DLD-1); experiment: MTT anti-proliferative assay, DLD-1 (Examples 3-12); details: 200 μg/ml; for % inhibition / % stim. / Mean OD (570 nm): 48 hours
# Experimental: as §1, §2, §3, §4, §5
# • 1. […]
# [3] = system: human oesophageal squamous cell carcinoma cell line (KYSE-30); experiment: MTT anti-proliferative assay, KYSE-30 (Examples 3-13)
# [4] = system: human oesophageal squamous cell carcinoma cell line (KYSE-30); experiment: as above; details: Examples 3-12, 200 μg/ml, 48 hours
# Experimental: as §1, §2, §3, §4, §5
# • 1. […]
# [5] = system: human colon cancer cell line (HCT-116); experiment: MTT anti-proliferative assay, HCT-116 (Examples 3-12); details: 200 μg/ml; for % inhibition / % stim. / Mean OD (570 nm): 48 hours
# Experimental: as §1, §2, §3, §4, §5
# • 1. […]
# [6] = system: human colorectal adenocarcinoma cells (DLD-1); experiment: MTT proliferation assay, DLD-1 (Examples 1-2); details: Example 2, DLD-1, sample 200 μg/mL, 24 hours incubation; for inhibition at 200 µg/mL: Homo sapiens
# Experimental: (§6) Test samples shown below in Table 2 were assessed for their ability to modulate the viability and proliferation of human colorectal adenocarcinoma cells (DLD-1) as assessed by the MTT assay. A positive control, 5-fluorouracil (5-FU) was included in addition to an unsupplemented cell control (negative control) in the study. The test samples were obtained by fractionation of propolis tincture.
# as §6, with “study.” for “study. The test samples were obtained by fractionation of propolis tincture.”
# Human colorectal adenocarcinoma epithelial cell lines were revived from cryostorage and cultured in the presence of the test and reference samples. The culture conditions for the cells were those described by the supplier of the cells (ATCC). An MTT assay was then performed on the cultures to determine the effect of the samples on the cell proliferation.
# Working solutions were prepared by dissolving the test fractions in 15% ethanol (ETOH)/HBSS to a concentration of 2 mg/mL solids.
# • 1. Human colorectal adenocarcinoma cells (ATCC CCI-221, DLD-1). • 2. Penicillin-streptomycin solution: 10000 units/mL penicillin, 10 mg/mL streptomycin in 0.9% NaCl (Sigma Cat #P-0781). Stored at −20° C. • 3. DMEM culture medium (Invitrogen Cat #12100-046) Stored at −20° C. • 4. Trypsin-EDTA solution: 0.25% Trypsin/EDTA, Invitrogen Cat#15400054 (×10 in stock). • 5. Phosphate buffered saline (PBS) (Prepared by TBL). • 6. Hanks Balanced Salt Solution (HBSS). (GIBCO Cat No. 14185-052). Stored at 4° C. • 7. Foetal Bovine Serum (GIBCO Cat #10091-148). Stored at −20° C. • 8. MTT Reagent: 100 mg/vial, (SIGMA Cat. No. M-2128) dissolved in PBS at 10 mg/mL and stored at −20° C. 5 mg/mL MTT solution were prepared in PBS and stored at 4° C. as working solution. • 9. MTT lysis buffer: 10% sodium dodecyl sulphate (SDS)/45% Dimethyl Formamide (20 g SDS was dissolved in 100 mL of double-distilled water (DDW), and 90 mL of Dimethyl Formamide added to the SDS solution). The pH was adjusted to 4.7 by glacial acetic acid, and DDW added up to a final volume of 200 mL. • 10. 5-Fluorouracil (5-FU), (Sigma Cat. No. F-6627). Two working solutions were prepared at 150 ng/mL and 75 ng/mL, dissolved in 15% Ethanol/HBSS. Final concentrations were 7.50 ng/mL and 3.75 ng/mL.
# The medium for the propagation of the colorectal adenocarcinoma (DLD-1) cells was DMEM, supplemented with penicillin-streptomycin solution (10 mL per litre). FBS was added just before use to give 10% w/v.
# • 1. The human colorectal adenocarcinoma cells (DLD-1) obtained from the American Type Culture Collection USA were revived from cryostorage. • 2. Following initial propagation using the media described above (see Medium Preparation), the culture was subcultured using the trypsin-EDTA as follows. The media was removed and 5 mL of the trypsin-EDTA solution added and incubated at 37° C. for 5 min or until all the cells had detached. The trypsin was neutralised by adding an equal volume of DMEM medium and the culture centrifuged at 300 g (1200 rpm) for 5 min at 4° C. • 3. The supernatant was decanted and the cell pellets resuspended in medium DMEM, FBS (10%), penicillin (100 units/mL), streptomycin (100 μg/mL). The cells were cultured at 37° C. in 5% CO2/95% air. • 4. After reaching confluence, the cells were detached using trypsin-EDTA and centrifuged as described in 2 above. • 5. The supernatants were discarded and the cells resuspended in DMEM and supplements as described in 3 above at 1.0×10^4 cells per mL. • 6. Into each well of three 96 well plates, 180 μl of the cells (1,800 cells/well) or medium was added. The plates were incubated at 5% CO2/95% air at 37° C. for 48 h which was sufficient to allow the cells to adhere. • 7. To each well, 20 μl of each, of the test samples or positive control was added. […]
# [7] = listed as 1,1-dimethylallylcaffeic acid
Compound,% inhibition [1],% stim. [1],Mean OD (570 nm) [1],% inhibition [2],% stim. [2],Mean OD (570 nm) [2],% inhibition [4],% stim. [4],Mean OD (570 nm) [4],% inhibition [5],% stim. [5],Mean OD (570 nm) [5],inhibition at 200 µg/mL [6],Mean OD (570 nm) [6],also measured
"1,1-dimethylallyl caffeic acid",86.74%,0%,0.0586,93.24%,0%,0.0279,97.8%,0%,0.0133,96.73%,0%,0.0166,,,"% inhibition [1, 7]: 86.7%; % inhibition [2, 7]: 93.2%; % inhibition ([3]; Example 13, 100 μg/ml): 88.63%; Mean OD (570 nm) ([3]; Example 13, 100 μg/ml): 0.0381; % inhibition [5, 7]: 86.7%"
"C=C(C)CCOC(=O)C=Cc1ccc(O)c(O)c1 [3-methyl-3-butenyl caffeate, 3-methyl-3-butenyl caffeic acid]",84.5% and 84.54%,0%,0.0683,91.6% and 91.63%,0%,0.0345,96.3% and 96.31%,0%,0.0222,96.0% and 96.03%,0%,0.0202,,,"% inhibition ([3]; Example 13, 10 μg/ml): 39.3% and 39.33%; Mean OD (570 nm) ([3]; Example 13, 10 μg/ml): 0.2034"
"O=C(/C=C/c1ccc(O)c(O)c1)OCCc1ccccc1 [CAPE, Caffeic acid phenethyl ester]",,,,,,,,,,,,,76%,,
O=C(O)/C=C/c1ccc(O)c(O)c1 [Caffeic acid],,,,,,,,,,,,,96.5%,0.0113,
O=c1cc(-c2ccccc2)oc2cc(O)cc(O)c12 [Chrysin],,,,,,,,,,,,,61.9%,,
O=c1c(O)c(-c2ccccc2)oc2cc(O)cc(O)c12 [Galangin],,,,,,,,,,,,,56.5%,,
COc1cc(O)c2c(c1)OC(c1ccccc1)CC2=O (centres unmarked) [Pinocembrin 7-methyl ether],,,,,,,,,,,,,,0.3151,% inhibition [6]: 2.71%; % inhibition ([6]; listed as #38 Pinocembrin 7-methyl ether): 2.7%
O=C(O)/C=C/c1ccccc1 [Trans-Cinnamic acid],,,,,,,,,,,,,26.2%,0.2390,
COc1cc(/C=C/C(=O)OCc2ccccc2)ccc1O [benzyl ferulate],86.96%,0%,0.0576,86.02%,0%,0.0576,98.62%,0%,0.0083,95.92%,0%,0.0207,,,"inhibition at 200 µg/mL ([1]; Homo sapiens, NCI-N87, 48 h): 87%; inhibition at 200 µg/mL ([2]; Homo sapiens, DLD-1, 48 h): 86%; Mean OD (570 nm) ([3]; Example 13, 50 μg/ml): 0.0398; inhibition at 50 µg/mL ([3]; Homo sapiens, KYSE-30, Example 13, 50 μg/ml): 88.1%; inhibition at 200 µg/mL ([4]; Homo sapiens, KYSE-30, 48 h): 98.6%; inhibition at 200 µg/mL ([5]; Homo sapiens, HCT-116, 48 h): 95.9%"
